The subject of data set [1] is U-87 MG. The data set can be described thus: Antiproliferative activity against human U87 cells. Type of data set: functional, cell-based, U-87MG ATCC.
In data set [2] the target is Protein cereblon/Mitogen-activated protein kinase kinase kinase kinase 1 (Homo sapiens, UniProt Q92918+Q96SW2). The data set can be described thus: PROTAC activity at CRBN/HPK1 in human Jurkat cells assessed as degradation of HPK1 protein by Western blotting analysis. Type of data set: cell-based. (A western blot detects proteins with antibodies after separation by electrophoresis.)

Data set [3] has as its target Mitogen-activated protein kinase kinase kinase kinase 1 (Homo sapiens, UniProt Q92918). The data set can be described thus: Inhibition of HPK1 (unknown origin).
In data set [4] the target is von Hippel-Lindau disease tumor suppressor/Platelet-derived growth factor receptor beta (Homo sapiens, UniProt P09619+P40337). The data set can be described thus: PROTAC activity at VHL/PDGFRbeta in human U87 cells assessed as induction of protein degradation by Western blot analysis. The class given is cell-based.
The target of data set [5] is T1, Bromodomain-containing protein 4 (Homo sapiens, UniProt O60885). Description: Inhibition of BRD4 (unknown origin) at 0.01 umol/L relative to control. The note with it: dose 0.01 µmol/L.
For data set [6], the target named is T1, Bromodomain-containing protein 4. The data set can be described thus: Inhibition of BRD4 (unknown origin) at 1 micromol/L relative to control. As to conditions: dose 1.0 µmol/L.
Data set [7] has as its system MV4-11. Description: Antiproliferative activity against human MV4-11 cells. The class given is functional, cell-based.
Data set [8] relates to THP-1. Description: Antiproliferative activity against human THP-1 cells. The class given is functional, cell-based.
The test system of data set [9] is HL-60. The data set can be described thus: Antiproliferative activity against human HL-60 cells. The class given is functional, cell-based.
Data set [10] concerns the target T2, Protein cereblon/Bromodomain-containing protein 4 (Homo sapiens, UniProt O60885+Q96SW2). Description: PROTAC activity at CRBN/BRD4 in human MV4-11 cells assessed as induction of degradation of BRD4 measured after 24 hrs by Western blot analysis. Type of data set: cell-based.
Data set [11] deals with T2, Protein cereblon/Bromodomain-containing protein 4. The data set can be described thus: PROTAC activity at CRBN/BRD4 in human MV4-11 cells assessed as induction of degradation of BRD4 by measuring maximal degradation at 10 uM incubated after 24 hrs by Western blot analysis relative to control. Type of data set: cell-based.
Data set [12] concerns MCF7. The data set can be described thus: Antiproliferative activity against human MCF7 cells assessed as reduction in cell viability incubated for 48 hrs by MTT assay. Type of data set: functional, cell-based. The note with it: MCF7, 48 h.
In data set [13] the test system is MCF7. Description: Antiproliferative activity against human MCF7 cells assessed as reduction in cell viability at 25 uM incubated for 72 hrs by resazurin based assay relative to control. Type of data set: functional.
Data set [14] concerns LNCaP. Description: Antiproliferative activity against human LNCaP cells. The class given is functional, cell-based.
Data set [15] relates to LNCaP C4-2B. Description: Antiproliferative activity against human LNCaP C4-2B cells. Type of data set: functional, cell-based.
The test system of data set [16] is CWR22R. Description: Antiproliferative activity against human 22Rv1 cells. The class given is functional, cell-based.
The test system of data set [17] is MOLM-13. The data set can be described thus: Antiproliferative activity against human MOLM-13 cells. Type of data set: functional, cell-based.
The subject of data set [18] is Hs-578T. The data set can be described thus: Antiproliferative activity against human Hs-578T cells. The class given is functional, cell-based.
In data set [19] the target is T1, Bromodomain-containing protein 4. The data set can be described thus: Binding affinity to BRD4 (unknown origin) assessed as dissociation constant.
Data set [20] relates to MCF7. Description: Antiproliferative activity against human MCF7 cells.
For data set [21], the system named is T47D. Description: Antiproliferative activity against human T47D cells.
Data set [22] deals with MDA-MB-231. The data set can be described thus: Antiproliferative activity against human MDA-MB-231 cells.
For data set [23], the system named is MDA-MB-468. Description: Antiproliferative activity against human MDA-MB-468 cells.
The test system of data set [24] is Pfeiffer. The data set can be described thus: Antiproliferative activity against human Pfeiffer cells.
The test system of data set [25] is MDA-MB-231. The data set can be described thus: Induction of cell cycle arrest in human MDA-MB-231 cells assessed as G0/G1 phase arrest at 12.3 to 1000 nM incubated for 24 hrs by PI staining based flow cytometry analysis. The class given is functional. As to conditions: dose 12.3-1000 nM.
In data set [26] the test system is Pfeiffer. The data set can be described thus: Induction of cell cycle arrest in human Pfeiffer cells assessed as G0/G1 phase arrest at 100 nM incubated for 24 hrs by PI staining based flow cytometry analysis. The class given is functional. In general terms: Flow cytometry measures light scatter and fluorescence of single cells or particles in a stream.
Data set [27] is described as follows: Intrinsic clearance in mouse liver microsomes. The class given is ADME, Microsome. As to conditions: read-out: CLH.
The nature of data set [28]: Half life in mouse. The note with it: in vivo. The class given is ADME, organism-based.
For data set [29], the target named is T1, Bromodomain-containing protein 4. The data set can be described thus: Inhibition of BRD4 (unknown origin).
Data set [30] has as its target Platelet-derived growth factor receptor beta (Homo sapiens) (UniProt P09619). Description: Inhibition of PDGFRbeta (unknown origin) measured for 48 hrs at 10 uM relative to control.
The subject of data set [31] is NCI-H1975. Description: Antiproliferative activity against human NCI-H1975 cells assessed as reduction in cell viability by MTT assay. The class given is functional, cell-based. A general note: Tetrazolium dyes change colour on reduction, which living cells bring about.
Data set [32] deals with A549. The data set can be described thus: Antiproliferative activity against human A549 cells assessed as reduction in cell viability by MTT assay. The class given is functional, cell-based.

We go through ten compounds from ChEMBL document CHEMBL6153029, “Next-generation cancer therapeutics: PROTACs and the role of heterocyclic warheads in targeting resistance” (Eur J Med Chem, 2025).

T2 sequence (Q96SW2 whole entry, looked up, other chains not shown): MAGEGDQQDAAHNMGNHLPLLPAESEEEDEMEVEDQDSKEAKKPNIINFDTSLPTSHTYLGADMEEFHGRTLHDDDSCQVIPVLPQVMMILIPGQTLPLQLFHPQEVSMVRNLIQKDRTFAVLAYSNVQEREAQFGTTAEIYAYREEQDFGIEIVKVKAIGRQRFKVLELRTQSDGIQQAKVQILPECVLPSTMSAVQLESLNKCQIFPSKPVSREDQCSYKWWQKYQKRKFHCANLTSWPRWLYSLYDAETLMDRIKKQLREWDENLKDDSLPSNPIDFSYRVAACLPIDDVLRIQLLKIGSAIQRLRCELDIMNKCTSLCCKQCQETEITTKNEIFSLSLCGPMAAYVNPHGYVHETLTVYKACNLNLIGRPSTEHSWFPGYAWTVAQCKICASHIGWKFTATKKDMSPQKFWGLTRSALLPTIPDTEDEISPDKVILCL
Chain of Protein cereblon/Mitogen-activated protein kinase kinase kinase kinase 1 (Q92918 whole entry): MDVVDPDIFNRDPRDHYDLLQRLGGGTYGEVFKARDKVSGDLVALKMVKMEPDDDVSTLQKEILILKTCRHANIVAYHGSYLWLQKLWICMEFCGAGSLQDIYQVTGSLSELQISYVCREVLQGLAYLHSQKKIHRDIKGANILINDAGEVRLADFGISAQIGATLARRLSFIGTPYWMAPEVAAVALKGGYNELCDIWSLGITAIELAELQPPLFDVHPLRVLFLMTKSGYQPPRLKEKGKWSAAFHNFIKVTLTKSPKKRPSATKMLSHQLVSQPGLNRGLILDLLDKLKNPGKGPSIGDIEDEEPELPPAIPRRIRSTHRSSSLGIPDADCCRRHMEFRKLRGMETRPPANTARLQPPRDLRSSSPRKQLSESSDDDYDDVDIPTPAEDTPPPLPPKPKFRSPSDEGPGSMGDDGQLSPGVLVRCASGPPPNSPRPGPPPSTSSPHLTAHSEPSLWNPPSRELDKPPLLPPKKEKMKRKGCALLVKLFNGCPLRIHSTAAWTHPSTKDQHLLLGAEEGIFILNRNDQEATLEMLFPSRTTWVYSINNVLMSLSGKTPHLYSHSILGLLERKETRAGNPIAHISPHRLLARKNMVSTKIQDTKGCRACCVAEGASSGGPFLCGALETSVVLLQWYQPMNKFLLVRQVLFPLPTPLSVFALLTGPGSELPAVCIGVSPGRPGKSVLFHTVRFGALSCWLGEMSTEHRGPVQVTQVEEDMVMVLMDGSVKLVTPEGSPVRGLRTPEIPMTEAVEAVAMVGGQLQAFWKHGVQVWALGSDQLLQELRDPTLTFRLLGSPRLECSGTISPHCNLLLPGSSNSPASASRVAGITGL
Chain of Protein cereblon/Mitogen-activated protein kinase kinase kinase kinase 1 (Q96SW2 whole entry): as the sequence (Q96SW2 whole entry, looked up, other chains not shown) above
Chain of Mitogen-activated protein kinase kinase kinase kinase 1 (Q92918 whole entry): as the sequence (Q92918 whole entry) above
Chain of von Hippel-Lindau disease tumor suppressor/Platelet-derived growth factor receptor beta (P09619 whole entry): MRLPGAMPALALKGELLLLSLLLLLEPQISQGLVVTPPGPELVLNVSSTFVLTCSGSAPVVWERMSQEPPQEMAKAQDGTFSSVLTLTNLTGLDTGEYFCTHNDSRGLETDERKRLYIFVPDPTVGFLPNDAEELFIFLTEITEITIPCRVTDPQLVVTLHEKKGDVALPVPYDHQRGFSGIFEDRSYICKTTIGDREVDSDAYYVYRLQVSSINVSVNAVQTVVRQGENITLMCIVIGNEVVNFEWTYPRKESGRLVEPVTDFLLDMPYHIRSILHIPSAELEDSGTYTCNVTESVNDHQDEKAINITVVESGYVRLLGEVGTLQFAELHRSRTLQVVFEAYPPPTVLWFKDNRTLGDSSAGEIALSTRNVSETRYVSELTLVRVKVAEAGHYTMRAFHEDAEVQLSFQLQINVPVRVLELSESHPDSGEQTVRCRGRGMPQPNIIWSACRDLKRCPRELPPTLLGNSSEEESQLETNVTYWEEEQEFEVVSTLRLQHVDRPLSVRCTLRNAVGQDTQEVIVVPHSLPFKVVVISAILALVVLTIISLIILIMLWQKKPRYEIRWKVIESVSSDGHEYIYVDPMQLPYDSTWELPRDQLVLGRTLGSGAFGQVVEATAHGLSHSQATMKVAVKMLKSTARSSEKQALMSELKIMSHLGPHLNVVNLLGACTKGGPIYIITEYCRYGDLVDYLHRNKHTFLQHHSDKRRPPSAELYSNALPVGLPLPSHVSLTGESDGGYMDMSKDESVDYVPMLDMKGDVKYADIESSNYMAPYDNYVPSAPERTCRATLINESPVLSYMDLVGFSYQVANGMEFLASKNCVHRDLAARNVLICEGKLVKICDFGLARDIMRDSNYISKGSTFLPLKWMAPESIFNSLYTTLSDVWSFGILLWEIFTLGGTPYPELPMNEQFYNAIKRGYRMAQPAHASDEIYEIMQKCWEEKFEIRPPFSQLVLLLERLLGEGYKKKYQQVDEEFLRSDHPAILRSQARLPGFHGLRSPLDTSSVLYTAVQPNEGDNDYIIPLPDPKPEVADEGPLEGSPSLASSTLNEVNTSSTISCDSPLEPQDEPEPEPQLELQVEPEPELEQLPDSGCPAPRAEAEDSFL
Chain of von Hippel-Lindau disease tumor suppressor/Platelet-derived growth factor receptor beta (P40337 whole entry): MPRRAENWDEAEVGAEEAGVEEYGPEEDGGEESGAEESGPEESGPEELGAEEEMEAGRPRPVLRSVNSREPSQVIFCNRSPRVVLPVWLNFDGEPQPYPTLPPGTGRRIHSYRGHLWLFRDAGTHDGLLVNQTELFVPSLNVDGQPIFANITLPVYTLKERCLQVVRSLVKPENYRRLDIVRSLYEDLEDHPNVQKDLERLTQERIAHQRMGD
Chain of Platelet-derived growth factor receptor beta (Homo sapiens) (P09619 whole entry): as the sequence (P09619 whole entry) above

One may read the IC50 as the point on the concentration scale where inhibition reaches its midpoint. For the compound `Cc1ncsc1-c1ccc(CNC(=O)[C@@H]2C[C@@H](O)CN2C(=O)[C@@H](NC(=O)CCC(=O)Nc2ccc(-c3nncc4c3C3CC4CC3C(=O)NCCCC(=O)n3nc(N)c4c(-c5ccc(NC(=O)Nc6cccc(Cl)c6)cc5)cccc43)cc2)C(C)(C)C)cc1` (some centres undefined), in data set [1], inhibition was half-maximal at 910 nM (IC50).

Usually DC50 stands for the concentration at which degradation of the target reaches its halfway point. Turning to `COc1ccc(-c2c[nH]c3ccc(-c4ccc(N5CCN(C(=O)CCOCCNc6cccc7c6C(=O)N(C6CCC(=O)NC6=O)C7=O)CC5)cc4)cc23)cc1OC` (centres undefined), the DC50 in data set [2] came to 1.8 nM. In addition, half-maximal inhibition in [3] (IC50) was put at 140 nM.

In the case of `Cc1cccc(NC(=O)Nc2ccc(-c3cccc4c3c(N)nn4C(=O)CCCNC(=O)C3CC4CC3c3c4cnnc3-c3ccc(NC(=O)CCC(=O)N[C@H](C(=O)N4C[C@H](O)C[C@H]4C(=O)NCc4ccc(-c5scnc5C)cc4)C(C)(C)C)cc3)cc2)c1F` (some centres undefined), the IC50 in data set [1] was over 100000 nM. Besides, the DC50 in [4] was 257 nM.

As a reminder, the inhibition is how much of the control response was suppressed. As usually defined, the Emax is the size of the effect at its maximum, as opposed to the concentration needed. For the compound `Cc1cc(-c2cc(NC(=O)CCC(=O)NCCOCCOCCc3ccc4c(c3)C(=O)N(C3CCC(=O)NC3=O)C4=O)ccc2Oc2ccccc2)n2cc[nH]c(=O)c12` (centres undefined), the figures for the inhibition in [5] and in [6] were 61.1% and 92.3%, respectively. Also, the IC50 in [7] amounted to 0.4 nM; in [8], 22.9 nM; in data set [9], 45.6 nM. Also, the DC50 in data set [10] was 0.75 nM. The Emax in data set [11] amounted to 95%.

`Nc1nc2cc(-c3nn(Cc4cn(CCCCCC(=O)Nc5cccc6c5C(=O)N(C5CCC(=O)NC5=O)C6=O)nn4)c4ncnc(N)c34)ccc2o1` (centres undefined): the IC50 in data set [12] came to 87 nM. Also, the Activity in [13] worked out at 90%.

The Kd is the concentration at which binding is half-saturated. Turning to `COc1ccc(Br)cc1S(=O)(=O)Nc1cc2c(C)noc2cc1OCCOCCOCCOCCOCCOCCOc1cc2onc(C)c2cc1NS(=O)(=O)c1cc(Br)ccc1OC`, the concentration for half-maximal inhibition (IC50) in data set [7] was found to be 450 nM; in data set [14] it was 525 nM; in data set [15], 930 nM; in [16], 900 nM; in data set [17], 450 nM; in data set [18], 1360 nM. Further, in data set [19], the Kd stood at 741 nM.

Broadly, the half-life is how long it takes for the measured level to halve. A lower half-life goes with rapid decline. In the case of `COc1cc(C)[nH]c(=O)c1CNC(=O)c1cccc2c1c(C)cn2[C@H](C)C1CCN(CCCCCCCCCC(=O)N[C@H](C(=O)N2C[C@H](O)C[C@H]2C(=O)NCc2ccc(-c3scnc3C)cc2)C(C)(C)C)CC1`, the IC50 was found to be 4.15 µM in data set [20]; 6.85 µM in data set [21]; 4.48 µM in data set [22]; 1400 nM in [23]; 2050 nM in data set [24]. Besides, the values for the Activity in data set [25] and in [26] were 68.38% and 11.74%, respectively. Also, the CLint scaled in data set [27] turned out to be 150 mL/min/kg. In addition, in [28], the half-life is 64.2 min.

Consider `CCS(=O)(=O)Nc1ccc(Oc2ccc(F)cc2F)c(-c2cn(C)c(=O)c3[nH]ccc23)c1` [MIVEBRESIB], for which the IC50 in [29] turned out to be 2.6 nM.

Take `O=C1CCC(N2Cc3c(NC(=O)CCCNC(=O)c4cc(Oc5ccc(NC(=O)Nc6ccc(Cl)c(C(F)(F)F)c6)cc5)ccn4)cccc3C2=O)C(=O)N1` (centres undefined): the inhibition in [30] is over 70%.

Regarding `COc1cc2ncnc(Nc3ccc(Cl)c(Cl)c3F)c2cc1Oc1ccc(NC(=O)CCCCCCC(=O)Nc2cccc3c2CN(C2CCC(=O)NC2=O)C3=O)cc1` (centres undefined), the values for the IC50 in [31] and in data set [32] were 2100 nM and 67 µM, respectively.
